Test results published in patent US20230087609A1, “USE OF A SOLUBLE GUANYLATE CYCLASE (sGC) STIMULATOR OR OF A COMBINATION OF A sGC STIMULATOR AND AN sGC ACTIVATOR FOR CONDITIONS WHEREIN THE HEME GROUP OF sGC IS OXIDIZED OR WHEREIN sGC IS DEFICIENT IN HEME” (Universiteit Maastricht, priority 2020, published 2023).

Biological target: T1, human apo-sGC (sGCα1 / mutant sGCβ1H105F) (Homo sapiens, UniProt Q02153, H105F)
T1 construct: His tag; made in house; host or cells: Sf9 cells infected with recombinant baculoviruses (provided by E. Martin); sonicated lysate, supernatant used unpurified
T1 sequence (Q02153 1-619 H105F): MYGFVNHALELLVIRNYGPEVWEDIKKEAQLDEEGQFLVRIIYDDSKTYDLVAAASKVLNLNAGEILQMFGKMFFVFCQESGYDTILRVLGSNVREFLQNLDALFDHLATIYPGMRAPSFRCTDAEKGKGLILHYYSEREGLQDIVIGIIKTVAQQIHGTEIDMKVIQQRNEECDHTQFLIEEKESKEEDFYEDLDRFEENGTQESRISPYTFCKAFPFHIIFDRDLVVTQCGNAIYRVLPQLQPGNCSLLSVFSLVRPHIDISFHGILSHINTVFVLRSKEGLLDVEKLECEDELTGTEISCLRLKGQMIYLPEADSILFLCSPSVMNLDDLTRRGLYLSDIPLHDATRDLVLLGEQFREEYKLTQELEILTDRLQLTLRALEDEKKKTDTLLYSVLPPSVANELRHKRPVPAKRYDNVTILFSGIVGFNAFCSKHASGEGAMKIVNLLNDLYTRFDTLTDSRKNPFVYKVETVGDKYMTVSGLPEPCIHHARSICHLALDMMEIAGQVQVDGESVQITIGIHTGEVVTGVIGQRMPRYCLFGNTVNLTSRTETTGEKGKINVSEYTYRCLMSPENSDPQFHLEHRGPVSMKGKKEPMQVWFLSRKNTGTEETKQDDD
T1 sequence (Q02108 1-690 partner): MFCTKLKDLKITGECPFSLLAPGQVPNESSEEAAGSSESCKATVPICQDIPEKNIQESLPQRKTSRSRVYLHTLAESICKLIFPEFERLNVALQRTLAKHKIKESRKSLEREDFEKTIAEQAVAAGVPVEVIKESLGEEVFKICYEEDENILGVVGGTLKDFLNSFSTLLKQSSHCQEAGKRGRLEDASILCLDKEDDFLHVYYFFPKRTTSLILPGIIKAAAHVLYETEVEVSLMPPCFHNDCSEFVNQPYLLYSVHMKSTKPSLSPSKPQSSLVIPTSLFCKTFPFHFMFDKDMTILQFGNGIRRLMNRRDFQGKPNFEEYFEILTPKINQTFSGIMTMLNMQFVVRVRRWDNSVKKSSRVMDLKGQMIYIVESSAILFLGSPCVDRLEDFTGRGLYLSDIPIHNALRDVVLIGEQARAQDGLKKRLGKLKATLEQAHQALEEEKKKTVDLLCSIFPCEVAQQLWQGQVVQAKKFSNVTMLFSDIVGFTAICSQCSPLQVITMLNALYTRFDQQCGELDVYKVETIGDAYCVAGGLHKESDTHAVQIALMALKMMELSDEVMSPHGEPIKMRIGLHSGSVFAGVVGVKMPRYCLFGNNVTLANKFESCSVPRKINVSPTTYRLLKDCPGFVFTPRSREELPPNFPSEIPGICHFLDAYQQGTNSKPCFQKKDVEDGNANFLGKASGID
Assay: sGC activity of human apo-sGC expressed in SF-9 cells
Assay type: biochemical
Description: To measure sGC activity, cells were stimulated with 250 μM DEA/NO or 10 μM BAY58-2667 for 3 min at 37° C. Thereafter, cells were immediately lysed in 80% ethanol. Cells were scraped and, after evaporation of ethanol, re-suspended in assay buffer and sonicated. Measurement of sGC activity in crude homogenates of mouse tissue was performed as previously described (Nedvetsky et al., Brain Res. 2002; 950(1-2):148-154. doi: 10.1016/50006-8993(02)03015-9).[9] Briefly, all samples were measured as the formation of cGMP at 37° C. during 10 min in a total incubation volume of […] containing 50 mM triethanolamine-HCl (pH 7.4), 3 mM MgCl2, 3 mM glutathione (Carl Roth, Karlsruhe, Germany), 1 mM IBMX, […], 5 mM creatine phosphate, 0.25 mg/ml creatine kinase and 1 mM or 0.5 mM GTP. After adding sGC activator in the absence or presence of the sGC stimulator the reaction was started by application of GTP solution. […] Thereafter the amount of cGMP was subsequently determined by a commercial enzyme immunoassay kit (Enzo Life Sciences, Lorrach, Germany or Biotrend, Cologne, Germany). […]
Recombinant baculoviruses containing the cDNAs for the sGCa1 subunit with a His tag and mutant sGCβ31H105F with a His tag of human sGC were provided by E. Martin (Houston, Tex., USA). […] Protein concentrations were determined by the RC DC protein assay kit (Bio-Rad, Cat. no. 5000122).

Nc1nc(-c2nn(Cc3ccccc3F)c3ncccc23)ncc1C1CC1 [BAY 41-2272, 5-cyclopropyl-2-[1-(2-fluoro-benzyl)-1H-pyrazolo[3,4-b]pyridin-3-yl]-pyrimidin-4-ylamine]
sGC activity / cGMP formation in presence of ODQ (10 μM BAY 41-2272 + 10 μM ODQ (FIG. 8)): improves the formation of cGMP | sGC activity / cGMP production (10 μM BAY 41-2272 alone (FIG. 8)): activated and cGMP is (increasingly) produced
